This note sets out measurements from patent US8987258B2 (priority 2008, dated 2015).

This assay addresses T1, SIRT1 (Homo sapiens, UniProt Q96EB6).
T1 sequence (Q96EB6 1-747): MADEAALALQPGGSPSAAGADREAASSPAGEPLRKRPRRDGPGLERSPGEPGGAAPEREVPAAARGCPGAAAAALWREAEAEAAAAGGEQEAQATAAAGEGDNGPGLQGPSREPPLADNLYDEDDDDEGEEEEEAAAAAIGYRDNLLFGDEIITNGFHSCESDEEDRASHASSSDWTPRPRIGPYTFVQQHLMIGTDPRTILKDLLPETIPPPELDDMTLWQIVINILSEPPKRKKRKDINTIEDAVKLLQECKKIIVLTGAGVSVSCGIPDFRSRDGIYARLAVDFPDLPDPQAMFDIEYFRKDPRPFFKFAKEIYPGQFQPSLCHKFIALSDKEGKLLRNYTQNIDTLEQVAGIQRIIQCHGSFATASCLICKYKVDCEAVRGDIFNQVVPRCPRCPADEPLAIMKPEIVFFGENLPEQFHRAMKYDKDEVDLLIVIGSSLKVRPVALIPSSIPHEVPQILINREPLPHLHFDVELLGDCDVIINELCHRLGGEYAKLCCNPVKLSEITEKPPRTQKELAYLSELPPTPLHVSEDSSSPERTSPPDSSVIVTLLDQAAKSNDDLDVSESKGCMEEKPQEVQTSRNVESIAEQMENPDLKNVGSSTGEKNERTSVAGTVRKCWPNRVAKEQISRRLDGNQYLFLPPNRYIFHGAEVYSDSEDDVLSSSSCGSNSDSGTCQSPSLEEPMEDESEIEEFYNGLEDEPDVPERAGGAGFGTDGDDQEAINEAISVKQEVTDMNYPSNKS
Description: Mass spectrometry based SIRT1 deacetylase activation assay. The format is biochemical. As to conditions: for EC1.5 μM: 0.5 μM peptide substrate, 120 μM βNAD+, 10 nM SIRT1, 25 min, 25° C.; for Emax: 25 min, mass spectrometry assay, read-out: % Fold Act. (percent maximum fold activation).

Molecules are shown by their SMILES. Bounds are passed on as bounds.

Take `COc1ccccc1-c1cc(=O)c2cccc(NC(=O)c3cnccn3)c2o1` [Compound 254]: the “EC1.5 μM” value is given as “C (EC1.5>25 μM)” and the Emax was less than 200%.

`Cc1cnc(NC(=O)c2cccc3c(=O)cc(-c4ccccc4S(C)(=O)=O)oc23)s1` [Compound 304]: the “EC1.5 μM” value is given as “C (EC1.5>25 μM)” and the Emax was less than 200%.

For the compound `O=C(Nc1cccc2c(=O)cc(-c3ccccc3C(F)(F)F)oc12)c1ccccn1` [Compound 251], the “EC1.5 μM” value is on record as “A (EC1-5<1.0)” and the Emax is greater than 200%.

As to `Cn1cc(C(=O)Nc2cccc3c(=O)cc(-c4ccccc4C(F)(F)F)oc23)cn1` [Compound 269], the “EC1.5 μM” value is listed as “B (EC1.5 1-25 μM)” and the Emax is greater than 200%.

For the compound `O=C(Nc1cccc2c(=O)cc(-c3ccc(C(F)(F)F)cc3)oc12)c1cscn1` [Compound 228], the “EC1.5 μM” value is “C (EC1.5>25 μM)” and the Emax was less than 200%.

Regarding `CC(C)c1ccccc1-c1cc(=O)c2cccc(NC(=O)c3cscn3)c2o1` [Compound 287], the “EC1.5 μM” value is recorded as “B (EC1.5 1-25 μM)” and the Emax was greater than 200%.

On to `Cc1cnc(NC(=O)c2cccc3c(=O)cc(-c4ccccc4C(F)(F)F)oc23)s1` [Compound 276], for which the “EC1.5 μM” value is on record as “C (EC1.5>25 μM)” and the Emax was less than 200%.

On to `CS(=O)(=O)c1cccc(-c2cc(=O)c3cccc(NC(=O)c4cccnc4)c3o2)c1` [Compound 242], for which the “EC1.5 μM” value was “C (EC1.5>25 μM)” and the Emax is less than 200%.

As for `O=C(Nc1cccc2c(=O)cc(-c3ccc(Br)cc3)oc12)c1cscn1` [Compound 232], the Emax is less than 200%.

Take `Cn1cnc(C(=O)Nc2cccc3c(=O)cc(-c4ccccc4C(F)(F)F)oc23)c1` [Compound 256]: the “EC1.5 μM” value was “A (EC1-5<1.0)” and the Emax was greater than 200%.

As for `O=C(Nc1cccc2c(=O)cc(-c3ccccc3C(F)(F)F)oc12)c1cncs1` [Compound 267], the “EC1.5 μM” value is listed as “B (EC1.5 1-25 μM)” and the Emax was greater than 200%.

On to `O=C(Nc1cccc2c(=O)cc(-c3c(F)cccc3F)oc12)c1cscn1` [Compound 291], for which the “EC1.5 μM” value is reported as “B (EC1.5 1-25 μM)” and the Emax is less than 200%.

On to `Cc1cnc(NC(=O)c2cccc3c(=O)cc(-c4cccnc4)oc23)s1` [Compound 239], for which the “EC1.5 μM” value is recorded as “C (EC1.5>25 μM)” and the Emax is less than 200%.

Consider `CS(=O)(=O)c1cccc(-c2cc(=O)c3cccc(C(=O)Nc4nccs4)c3o2)c1` [Compound 220], for which the “EC1.5 μM” value is given as “C (EC1.5>25 μM)” and the Emax was less than 200%.

`O=C(Nc1ccccn1)c1cccc2c(=O)cc(-c3cccc(N4CCOCC4)c3)oc12` [Compound 209]: the “EC1.5 μM” value was “C (EC1.5>25 μM)” and the Emax is less than 200%.

Regarding `O=C(Nc1cccc2c(=O)cc(-c3cccc(C(F)(F)F)c3)oc12)c1cnccn1` [Compound 205], the “EC1.5 μM” value is on record as “C (EC1.5>25 μM)” and the Emax is less than 200%.

Regarding `O=C(Nc1cccc2c(=O)cc(-c3cc(F)ccc3Cl)oc12)c1cnccn1` [Compound 300], the “EC1.5 μM” value is listed as “C (EC1.5>25 μM)” and the Emax was less than 200%.

With `O=C(Nc1cccc2c(=O)cc(-c3ccccc3C(F)(F)F)oc12)c1cnccn1` [Compound 261], the “EC1.5 μM” value was “A (EC1-5<1.0)” and the Emax was greater than 200%.

For `Cc1cnc(NC(=O)c2cccc3c(=O)cc(-c4cccc(Br)c4)oc23)s1` [Compound 237], the Emax is less than 200%.

As for `O=C(Nc1cccc2c(=O)cc(-c3ccccc3C(F)(F)F)oc12)c1cccnc1` [Compound 262], the “EC1.5 μM” value is given as “B (EC1.5 1-25 μM)” and the Emax was less than 200%.

With `O=C(Nc1cccc(CN2CCCC2)n1)c1cccc2c(=O)cc(-c3cccc(C(F)(F)F)c3)oc12` [Compound 243, 4-oxo-N-(6-(pyrrolidin-1-ylmethyl)pyridin-2-yl)-2-(3-(trifluoromethyl)phenyl)-4H-chromene-8-carboxamide], the “EC1.5 μM” value was “B (EC1.5 1-25 μM)” and the Emax was greater than 200%.

Turning to `O=C(Nc1cccc2c(=O)cc(-c3ccccc3OC(F)(F)F)oc12)c1cnccn1` [Compound 234], the “EC1.5 μM” value is “A (EC1-5<1.0)” and the Emax is greater than 200%.

Turning to `Cc1cnc(NC(=O)c2cccc3c(=O)cc(-c4ccncc4)oc23)s1` [Compound 248, N-(5-methylthiazol-2-yl)-4-oxo-2-(pyridin-4-yl)-4H-chromene-8-carboxamide], the “EC1.5 μM” value is “C (EC1.5>25 μM)” and the Emax was less than 200%.

On to `CS(=O)(=O)c1ccccc1-c1cc(=O)c2cccc(NC(=O)c3cnccn3)c2o1` [Compound 265], for which the “EC1.5 μM” value is listed as “C (EC1.5>25 μM)” and the Emax is less than 200%.

In the case of `O=C(Nc1cccc2c(=O)cc(-c3cccc(N4CCOCC4)c3)oc12)c1cscn1` [Compound 212], the “EC1.5 μM” value is recorded as “B (EC1.5 1-25 μM)” and the Emax is greater than 200%.

In the case of `O=C(Nc1cccc2c(=O)cc(-c3cccc(F)c3F)oc12)c1cscn1` [Compound 289], the “EC1.5 μM” value is recorded as “C (EC1.5>25 μM)” and the Emax was less than 200%.

Regarding `O=C(Nc1cccc2c(=O)cc(-c3ccccc3C(F)(F)F)oc12)c1cncc(N2CCOCC2)n1` [Compound 316], the “EC1.5 μM” value is listed as “A (EC1-5<1.0)” and the Emax was greater than 200%.

`Cc1cnc(NC(=O)c2cccc3c(=O)cc(-c4ccccc4C(C)C)oc23)s1` [Compound 285]: the “EC1.5 μM” value is recorded as “C (EC1.5>25 μM)” and the Emax was less than 200%.

As for `O=C(Nc1nccs1)c1cccc2c(=O)cc(-c3cccc(C(F)(F)F)c3)oc12` [Compound 206], the “EC1.5 μM” value is “C (EC1.5>25 μM)” and the Emax is less than 200%.

On to `O=C(Nc1cccc2c(=O)cc(-c3cccc(C(F)(F)F)c3)oc12)c1cccc(OC[C@@H](O)CO)n1` [Compound 244], for which the “EC1.5 μM” value is “B (EC1.5 1-25 μM)” and the Emax is greater than 200%.

Regarding `O=C(Nc1cccc2c(=O)cc(-c3cccc(F)c3Cl)oc12)c1cscn1` [Compound 299], the “EC1.5 μM” value is on record as “C (EC1.5>25 μM)” and the Emax is less than 200%.

As for `O=C(Nc1cccc2c(=O)cc(-c3ccccc3Cl)oc12)c1cccc(CN2CCOCC2)n1` [Compound 331], the “EC1.5 μM” value is given as “A (EC1-5<1.0)” and the Emax is greater than 200%.

Regarding `Cc1cnc(NC(=O)c2cccc3c(=O)cc(-c4ccccc4OC(F)(F)F)oc23)s1` [Compound 275], the “EC1.5 μM” value is listed as “C (EC1.5>25 μM)” and the Emax was less than 200%.

`CS(=O)(=O)c1ccc(-c2cc(=O)c3cccc(NC(=O)c4ccccn4)c3o2)cc1` [Compound 249]: the “EC1.5 μM” value is “C (EC1.5>25 μM)” and the Emax was less than 200%.

As for `O=C(Nc1cccc2c(=O)cc(-c3cc(F)ccc3F)oc12)c1cnccn1` [Compound 292], the “EC1.5 μM” value was “C (EC1.5>25 μM)” and the Emax was less than 200%.

For the compound `O=C(Nc1cccc2c(=O)cc(-c3cccnc3)oc12)c1ccccn1` [Compound 216], the “EC1.5 μM” value is listed as “C (EC1.5>25 μM)” and the Emax was less than 200%.

As to `Cn1nccc1C(=O)Nc1cccc2c(=O)cc(-c3ccccc3C(F)(F)F)oc12` [Compound 257], the “EC1.5 μM” value is given as “A (EC1-5<1.0)” and the Emax was greater than 200%.

As to `O=C(Nc1cccc2c(=O)cc(-c3ccccc3Cl)oc12)c1cccc(CN2CCOCC2)c1` [Compound 330], the “EC1.5 μM” value was “B (EC1.5 1-25 μM)” and the Emax is greater than 200%.

As for `O=C(Nc1cccc2c(=O)cc(-c3cccnc3)oc12)c1cscn1` [Compound 215, N-(4-oxo-2-(pyridin-3-yl)-4H-chromen-8-yl)thiazole-4-carboxamide], the “EC1.5 μM” value is “C (EC1.5>25 μM)” and the Emax is less than 200%.

As to `O=C(Nc1cccc2c(=O)cc(-c3cccc(Br)c3)oc12)c1cscn1` [Compound 230], the Emax is less than 200%.

As to `Cn1ccc(C(=O)Nc2cccc3c(=O)cc(-c4ccccc4C(F)(F)F)oc23)n1` [Compound 259], the “EC1.5 μM” value is given as “B (EC1.5 1-25 μM)” and the Emax is greater than 200%.

As for `O=C(Nc1cccc2c(=O)cc(-c3ccccc3Cl)oc12)c1cccc(N2CCOCC2)c1` [Compound 336], the “EC1.5 μM” value is given as “B (EC1.5 1-25 μM)” and the Emax is greater than 200%.

With `O=C(Nc1cccc2c(=O)cc(-c3ccccc3N3CCOCC3)oc12)c1cscn1` [Compound 240], the “EC1.5 μM” value was “B (EC1.5 1-25 μM)” and the Emax is greater than 200%.

With `O=C(Nc1cccc2c(=O)cc(-c3cccc(OC(F)(F)F)c3)oc12)c1cscn1` [Compound 202], the “EC1.5 μM” value is reported as “C (EC1.5>25 μM)” and the Emax is less than 200%.

In the case of `Cc1cnc(NC(=O)c2cccc3c(=O)cc(-c4cccc(C(F)(F)F)c4)oc23)s1` [Compound 235], the “EC1.5 μM” value is given as “C (EC1.5>25 μM)” and the Emax was less than 200%.
